Counter-ions that a name gives are not always drawn.
Molecular target: FGFR1 active kinase (Homo sapiens, UniProt P11362)
Assay: FGFR Kinase assay - Caliper; further: 408 µM ATP
Format: biochemical
Conditions: FGFR1 […], 408 uM ATP; mean of n as printed; read-out: FGFR Kinase assay - Caliper, IC50
Description: FGFR Kinase Assay—Caliper
To determine inhibition of FGFR activity, kinase assays were conducted using Caliper technology.
Kinase activity assays were performed in Greiner 384-well low volume plates, with a total reaction volume of 12 ul per well. Final concentration of FGFR1 active kinase in each reaction well was 7.2 nM. The substrate for each assay was a custom peptide with fluorescent tag (13 amino acids in length, […] with the fluorescene tag on the first K).
Compounds were serially diluted in 5% (v/v) DMSO, before being added to assay plates. The Enzyme (at 7.2 nM [final]) and Substrate (at 3.6 uM [final]) were added separately to the compound plates, in reaction buffer [comprising: 50 mM MOPS (Sigma, Catalogue No. M1254)—pH 6.5, 0.004% Triton (Sigma, Catalogue No. X-100), 2.4 mM DTT, 12 mM MgCl2, 408 uM ATP] resulting in a final DMSO concentration in the reaction mix of 0.8%.
Assay plates were incubated at room temperature for 1.5 h, before the reaction was stopped with the addition of buffer [comprising: 100 mM HEPES—pH7.5, 0.033% Brij-35 (Sigma Catalogue No. B4184), 0.22% Caliper Coating Reagent #3 (Caliper Life Sciences Catalogue No. 760050), 88 mM EDTA, 5% DMSO]. Stopped assay plates were then read using the Caliper LabChip® LC3000 (which uses microfludics to measure a shift in mobility between fluorescent labelled peptide and the FGFR1 kinase—phosphorylated form of this peptide).
In the assay, compounds were tested at a range of concentrations.
Percentage inhibition at 1 uM, as expressed herein, is a calculated value based on the curve fit that was generated experimentally. From the fitted curve plot, the effect of compound at a concentration of 1 uM was calculated as a percentage inhibition. The IC50 is the concentration of compound, which inhibits FGFR1 kinase activity by 50% in the context of this assay.

Chain of FGFR1 active kinase (P11362 22-822): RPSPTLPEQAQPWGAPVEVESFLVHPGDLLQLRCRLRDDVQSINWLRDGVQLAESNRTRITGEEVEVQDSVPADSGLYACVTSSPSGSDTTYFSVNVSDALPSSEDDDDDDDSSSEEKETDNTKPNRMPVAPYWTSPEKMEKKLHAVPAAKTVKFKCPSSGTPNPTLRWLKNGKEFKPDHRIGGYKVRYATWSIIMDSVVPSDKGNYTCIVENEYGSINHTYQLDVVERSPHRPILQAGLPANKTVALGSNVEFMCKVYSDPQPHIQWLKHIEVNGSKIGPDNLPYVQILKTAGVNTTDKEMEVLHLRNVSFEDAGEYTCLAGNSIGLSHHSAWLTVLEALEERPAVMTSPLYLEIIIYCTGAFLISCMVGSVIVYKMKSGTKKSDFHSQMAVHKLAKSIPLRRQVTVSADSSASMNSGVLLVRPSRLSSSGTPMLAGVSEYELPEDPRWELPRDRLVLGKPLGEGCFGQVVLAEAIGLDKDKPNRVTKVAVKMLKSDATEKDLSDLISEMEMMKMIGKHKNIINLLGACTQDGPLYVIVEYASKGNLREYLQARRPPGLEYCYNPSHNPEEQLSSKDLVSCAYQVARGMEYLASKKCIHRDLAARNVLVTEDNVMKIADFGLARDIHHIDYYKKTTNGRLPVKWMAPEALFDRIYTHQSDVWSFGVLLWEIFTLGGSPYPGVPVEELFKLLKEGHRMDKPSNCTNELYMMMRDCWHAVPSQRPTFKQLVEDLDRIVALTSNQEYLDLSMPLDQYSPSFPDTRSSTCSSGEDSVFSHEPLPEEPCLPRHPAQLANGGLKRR

IC50 [nM]	SMILES
130	COc1cc(COc2cc(NC(=O)c3cccc(N4CCNCC4)c3)n[nH]2)cc(OC)c1 [Example 74, N-[5-[(3,5-Dimethoxyphenyl)methoxy]-1H-pyrazol-3-yl]-3-piperazin-1-yl-benzamide]
122	COc1cc(COc2cc(NC(=O)c3ccc(N4CCN(C)CC4)cn3)[nH]n2)cc(OC)c1 [Example 69, N-[5-[(3,5-Dimethoxyphenyl)methoxy]-2H-pyrazol-3-yl]-5-(4-methylpiperazin-1-yl)pyridine-2-carboxamide]
240	COc1cccc(CCc2cc(NC(=O)c3ccc(CCN4CCCC4)nc3)[nH]n2)c1 [Example 65, N-[5-[2-(3-Methoxyphenyl)ethyl]-2H-pyrazol-3-yl]-6-(2-pyrrolidin-1-ylethyl)pyridine-3-carboxamide]
96	COc1cc(CCc2cc(NC(=O)c3ccc(C(=O)N4CCN(C)CC4)cc3)n[nH]2)cc(OC)c1 [Example 86, N-[5-[2-(3,5-Dimethoxyphenyl)ethyl]-1H-pyrazol-3-yl]-4-(4-methylpiperazine-1-carbonyl)benzamide]
470	COc1ccc(OC)c(CCc2cc(NC(=O)c3ccc(N4CCN(C)CC4)cc3)[nH]n2)c1 [Example 78, N-[5-[2-(2,5-Dimethoxyphenyl)ethyl]-2H-pyrazol-3-yl]-4-(4-methylpiperazin-1-yl)benzamide]
486	COc1cc(CCc2cc(NC(=O)c3ccc(CN4CCc5ccc(C#N)cc5C4)cc3)n[nH]2)cc(OC)c1 [Example 52, 4-[(7-Cyano-3,4-dihydro-1H-isoquinolin-2-yl)methyl]-N-[5-[2-(3,5-dimethoxyphenyl)ethyl]-1H-pyrazol-3-yl]benzamide]
76000	C=CCOC(=O)Nc1ccc(C(=O)Nc2cc(CCc3cccc(OC)c3)n[nH]2)cn1 [Example 35, Prop-2-enyl N-[5-[[5-[2-(3-methoxyphenyl)ethyl]-2H-pyrazol-3-yl]carbamoyl]pyridin-2-yl]carbamate]
5000	COc1cccc(CCc2cc(NC(=O)c3cc(O)ccn3)[nH]n2)c1 [Example 64, 4-Hydroxy-N-[5-[2-(3-methoxyphenyl)ethyl]-2H-pyrazol-3-yl]pyridine-2-carboxamide]
2610	COc1cc(CCc2cc(NC(=O)c3ccccc3OC)n[nH]2)cc(OC)c1 [Example 41, N-[5-[2-(3,5-Dimethoxyphenyl)ethyl]-1H-pyrazol-3-yl]-2-methoxy-benzamide]
81	COc1cc(CCc2cc(NC(=O)c3ccc(N4CCN(CCO)CC4)cc3)n[nH]2)cc(OC)c1 [Example 51, N-[5-[2-(3,5-Dimethoxyphenyl)ethyl]-1H-pyrazol-3-yl]-4-[4-(2-hydroxyethyl)piperazin-1-yl]benzamide]
40	COc1cc(CCc2cc(NC(=O)c3ccc(N4CCNCC4)nc3)n[nH]2)cc(OC)c1 [Example 46, N-[5-[2-(3,5-Dimethoxyphenyl)ethyl]-1H-pyrazol-3-yl]-6-piperazin-1-yl-pyridine-3-carboxamide]
25	COc1cc(CCc2cc(NC(=O)c3ccc(OCC4CCNCC4)cc3)n[nH]2)cc(OC)c1 [Example 44, N-[5-[2-(3,5-Dimethoxyphenyl)ethyl]-1H-pyrazol-3-yl]-4-(4-piperidylmethoxy)benzamide]
68000	COC(=O)c1ccc(C(=O)Nc2cc(CCc3cccc(OC)c3)n[nH]2)nc1 [Example 61, Methyl 6-[[5-[2-(3-methoxyphenyl)ethyl]-2H-pyrazol-3-yl]carbamoyl]pyridine-3-carboxylate]
140	COc1cc(CCc2cc(NC(=O)c3ccc(CN4CCN(C)CC4)cc3)n[nH]2)cc(OC)c1 [Example 95, N-[5-[2-(3,5-Dimethoxyphenyl)ethyl]-1H-pyrazol-3-yl]-4-[(4-methylpiperazin-1-yl)methyl]benzamide]
1000	COc1cccc(CCc2cc(NC(=O)c3ccc(-n4cnnn4)cc3)[nH]n2)c1 [Example 34, N-[5-[2-(3-Methoxyphenyl)ethyl]-2H-pyrazol-3-yl]-4-(tetrazol-1-yl)benzamide]
3770	COc1cccc(CCc2cc(NC(=O)c3ccc(C#N)nc3)[nH]n2)c1 [Example 63, 6-Cyano-N-[5-[2-(3-methoxyphenyl)ethyl]-2H-pyrazol-3-yl]pyridine-3-carboxamide]

IC50 [nM]	SMILES
165	COc1cc(CCc2cc(NC(=O)c3ccc(F)cc3)[nH]n2)cc(OC)c1 [Example 38, N-[5-[2-(3,5-Dimethoxyphenyl)ethyl]-2H-pyrazol-3-yl]-4-fluoro-benzamide]
260	COc1cccc(CCc2cc(NC(=O)c3ccc(NS(C)(=O)=O)cc3)[nH]n2)c1 [Example 27, 4-Methanesulfonamido-N-[5-[2-(3-methoxyphenyl)ethyl]-2H-pyrazol-3-yl]benzamide]
40	COc1cc(CCc2cc(NC(=O)c3ccc(N4CCN(C)C(C)C4)cc3)n[nH]2)cc(OC)c1 (stereo not shown) [Example 81, N-[5-[2-(3,5-Dimethoxyphenyl)ethyl]-1H-pyrazol-3-yl]-4-(3,4-dimethylpiperazin-1-yl)benzamide]
81	COc1cc(CCc2cc(NC(=O)c3ccc(N4CCN5CCCCC5C4)cc3)[nH]n2)cc(OC)c1 (stereo not shown) [Example 94, 4-(1,3,4,6,7,8,9,9a-Octahydropyrido[2,1-c]pyrazin-2-yl)-N-[5-[2-(3,5-dimethoxyphenyl)ethyl]-2H-pyrazol-3-yl]benzamide]
7.9	COc1cc(CCc2cc(NC(=O)c3ccc(C4CCN(C)CC4)cc3)n[nH]2)cc(OC)c1 [Example 92, N-[5-[2-(3,5-Dimethoxyphenyl)ethyl]-1H-pyrazol-3-yl]-4-(1-methyl-4-piperidyl)benzamide]
120	COc1cc(CCc2cc(NC(=O)c3ccc(CCN4CCOCC4)cc3)n[nH]2)cc(OC)c1 [Example 56, N-[5-[2-(3,5-Dimethoxyphenyl)ethyl]-1H-pyrazol-3-yl]-4-(2-morpholin-4-ylethyl)benzamide]
438	COc1cc(CCc2cc(NC(=O)c3ccc(N4CCCCC4)cc3)n[nH]2)cc(OC)c1 [Example 43, N-[5-[2-(3,5-Dimethoxyphenyl)ethyl]-1H-pyrazol-3-yl]-4-(1-piperidyl)benzamide]
69000	COc1cccc(CCc2cc(NC(=O)c3ccc(-n4cccn4)nc3)[nH]n2)c1 [Example 37, N-[5-[2-(3-Methoxyphenyl)ethyl]-2H-pyrazol-3-yl]-6-pyrazol-1-yl-pyridine-3-carboxamide]
231000	COc1cccc(CCc2cc(NC(=O)c3ccc(NC(=O)c4ccccc4)cc3)[nH]n2)c1 [Example 21, 4-Benzamido-N-[5-[2-(3-methoxyphenyl)ethyl]-2H-pyrazol-3-yl]benzamide]
1200	COc1cccc(CCc2cc(NC(=O)c3ccc(-c4cnco4)cc3)[nH]n2)c1 [Example 33, N-[5-[2-(3-Methoxyphenyl)ethyl]-2H-pyrazol-3-yl]-4-(1,3-oxazol-5-yl)benzamide]
8.5	COc1cc(COc2cc(NC(=O)c3ccc(N4CCCNCC4)cc3)n[nH]2)cc(OC)c1 [Example 75, 4-(1,4-Diazepan-1-yl)-N-[5-[(3,5-dimethoxyphenyl)methoxy]-1H-pyrazol-3-yl]benzamide Hydrochloride]
26	COc1cc(CCc2cc(NC(=O)c3ccc(N4CCNCC4)cc3)n[nH]2)cc(OC)c1 [Example 45, N-[5-[2-(3,5-Dimethoxyphenyl)ethyl]-1H-pyrazol-3-yl]-4-piperazin-1-yl-benzamide]
56	COc1cc(CCc2cc(NC(=O)c3ccc(N4CCN(C(C)=O)CC4)cc3)n[nH]2)cc(OC)c1 [Example 90, 4-(4-Acetylpiperazin-1-yl)-N-[5-[2-(3,5-dimethoxyphenyl)ethyl]-1H-pyrazol-3-yl]benzamide]
660	COc1cccc(CCc2cc(NC(=O)c3ccc(-n4cncn4)cc3)[nH]n2)c1 [Example 36, N-[5-[2-(3-Methoxyphenyl)ethyl]-2H-pyrazol-3-yl]-4-(1,2,4-triazol-1-yl)benzamide]
37	COc1cc(CCc2cc(NC(=O)c3ccc(N4CCN5CCCC5C4)cc3)[nH]n2)cc(OC)c1 (stereo not shown) [Example 93, 4-(3,4,6,7,8,8a-Hexahydro-1H-pyrrolo[2,1-c]pyrazin-2-yl)-N-[5-[2-(3,5-dimethoxyphenyl)ethyl]-2H-pyrazol-3-yl]benzamide]

From patent publication US10301267B2, “Compounds” (AstraZeneca AB, priority 2006, dated 2019)
